Source: patent publication US8748608B2, “4-phenylpiperazine derivatives with functionalized linkers as dopamine D3 receptor selective ligands and methods of use” (The United States of America as Represented by the …, priority 2007, dated 2014)
Where two headings read alike, the source gives them in different places.

How the values were obtained:
[1] = molecular target: human dopamine D2-long (D2) receptor (Homo sapiens (Human), UniProt P14416); assay: Human D2-like receptor competition binding in HEK cells, D2; conditions: hD2L
Excerpt: (§1) Human dopamine D2-long (D2) and D3 (D3) receptors were expressed in HEK cells. In brief, stably transfected HEK cells expressing the human D2-long and the D3 dopamine receptor were developed using the pIRES bicistronic expression vector (CLONTECH; Palo Alto, Calif.). […] For comparison, human dopamine D4 (D4) receptors were obtained from HEK 293 cells stably transfected with a PCR product of a human cDNA coding for the D4.4 form of the human D4 dopamine receptor.
(§2) The procedures to determine the binding affinities at the human dopamine D2-like receptors, the binding affinities at the serotonin 5HT1A, 5HT2A and 5HT2c receptors and functional mitogenesis assay are known in the art. […] Both of these references are incorporated by reference.

[2] = molecular target: human dopamine D3 receptor (Homo sapiens (Human), UniProt P35462); assay: Human D2-like receptor competition binding in HEK cells, D3; conditions: for D2/D3: ratio of Ki at D2 over Ki at D3
Excerpt: as §1, §2

[3] = molecular target: T1, D2 receptor (human) in CHOp-cells (Homo sapiens (Human), UniProt P14416); assay: D2 inhibition of quinpirole stimulation of mitogenesis (antagonist assay); assay type: cell-based; conditions: inhibition of 30 nM quinpirole stimulated mitogenesis, read-out: IC50 ± S.E.M., D2
Protocol: (§3) The cells were incubated at 37° C. in α-MEM with 10% FBS, 0.05% penicillin-streptomycin, and 200 μg/mL of G418. After 48 hours, the cells were rinsed twice with serum-free α-MEM and incubated for 24 hours at 37° C. In the functional assay for agonism, the medium was removed and replaced with 90 μl of serum-free α-MEM and 10 μl of test compound in sterile water; in the antagonist assay, the test compound was diluted in sterile water plus 30 nM quinpirole. After another 24-hour incubation at 37° C., 0.25 μCi of [^3H]thymidine was added to each well and the plates were further incubated for 2 hours at 37° C. The cells were then trypsinized, and the plates were filtered and counted as usual in the art. Quinpirole was run on every plate as an internal standard.
as §2

[4] = molecular target: T1, D2 receptor (human) in CHOp-cells; assay: D2 stimulation of mitogenesis (agonist assay); assay type: cell-based; conditions: for EC50: read-out: partial agonist activity: EC50, D2
Protocol: as §3
(§4) The procedures to determine the binding affinities at the human dopamine D2-like receptors, the binding affinities at the serotonin 5HT1A, 5HT2A and 5HT2c receptors and functional mitogenesis assay are known in the art. See J. Med. Chem. 2005, 48, 839-848. See also, NIDA Research Monograph #178, Proceedings of the College of Drug Dependence, p. 440-466, 1998. Both of these references are incorporated by reference.

[5] = molecular target: T2, human D4.4 dopamine receptor (Homo sapiens (Human), UniProt P21917); assay: Human D2-like receptor competition binding in HEK cells, D4; conditions: for Ki: HEK 293 cells, hD4.4; for D4/D3 Ki ratio: head printed D4/D2, values correspond to D4 Ki over D3 Ki
Excerpt: as §1, §2

[6] = molecular target: T3, human dopamine D3 receptors in CHO cells (Homo sapiens (Human), UniProt P35462); assay: D3 stimulation of mitogenesis (agonist assay); assay type: cell-based; conditions: CHOp cells; for EC50: read-out: partial agonist activity: EC50, D3 (converted)
Protocol: as §3, §4

serotonin 5HT1A receptor = serotonin 5HT1A receptor (Homo sapiens (Human), UniProt P08908); assay: Serotonin receptor binding, 5HT1A; conditions: ratio of affinities
Excerpt: as §4

serotonin 5HT2A receptor = serotonin 5HT2A receptor (Homo sapiens (Human), UniProt P28223); assay: Serotonin receptor binding, 5HT2A; conditions: ratio of affinities
Excerpt: as §2

serotonin 5HT2c receptor = serotonin 5HT2c receptor (Homo sapiens (Human), UniProt P28335); assay: Serotonin receptor binding, 5HT2c; conditions: ratio of affinities, 5HT2c over D3
Excerpt: as §2

[7] = molecular target: T3, human dopamine D3 receptors in CHO cells; assay: D3 inhibition of quinpirole stimulation of mitogenesis (antagonist assay); assay type: cell-based; conditions: inhibition of 30 nM quinpirole stimulated mitogenesis, CHOp cells; read-out: IC50 ± S.E.M., D3
Protocol: as §3, §2

[8] = molecular target: T2, human D4.4 dopamine receptor; conditions: HEK 293 cells; relative to D2 and D3; cited from earlier work
σ1 binding sites = conditions: cited from earlier work
σ2 binding sites = conditions: cited from earlier work
D1a dopamine receptors = D1a dopamine receptors (Homo sapiens (Human), UniProt P21728); conditions: cited from earlier work
[9] = HEK cells, hD3, read-out: D3 Ki
[10] = Table 3, unit inferred, with spread, read-out: D3 binding affinity

T3 sequence (P35462 whole entry): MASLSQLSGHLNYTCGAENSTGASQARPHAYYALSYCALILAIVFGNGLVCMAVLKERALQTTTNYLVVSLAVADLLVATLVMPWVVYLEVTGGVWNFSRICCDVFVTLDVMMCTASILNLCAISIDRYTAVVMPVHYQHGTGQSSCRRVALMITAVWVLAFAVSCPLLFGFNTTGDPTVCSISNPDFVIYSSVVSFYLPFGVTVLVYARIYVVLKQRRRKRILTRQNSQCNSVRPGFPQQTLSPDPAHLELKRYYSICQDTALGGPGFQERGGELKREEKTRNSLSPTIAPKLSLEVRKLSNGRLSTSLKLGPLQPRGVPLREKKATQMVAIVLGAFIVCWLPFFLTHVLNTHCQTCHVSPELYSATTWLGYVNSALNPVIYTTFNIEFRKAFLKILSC
Chain of human dopamine D3 receptor (P35462 whole entry): as above
Chain of serotonin 5HT2A receptor (P28223 whole entry): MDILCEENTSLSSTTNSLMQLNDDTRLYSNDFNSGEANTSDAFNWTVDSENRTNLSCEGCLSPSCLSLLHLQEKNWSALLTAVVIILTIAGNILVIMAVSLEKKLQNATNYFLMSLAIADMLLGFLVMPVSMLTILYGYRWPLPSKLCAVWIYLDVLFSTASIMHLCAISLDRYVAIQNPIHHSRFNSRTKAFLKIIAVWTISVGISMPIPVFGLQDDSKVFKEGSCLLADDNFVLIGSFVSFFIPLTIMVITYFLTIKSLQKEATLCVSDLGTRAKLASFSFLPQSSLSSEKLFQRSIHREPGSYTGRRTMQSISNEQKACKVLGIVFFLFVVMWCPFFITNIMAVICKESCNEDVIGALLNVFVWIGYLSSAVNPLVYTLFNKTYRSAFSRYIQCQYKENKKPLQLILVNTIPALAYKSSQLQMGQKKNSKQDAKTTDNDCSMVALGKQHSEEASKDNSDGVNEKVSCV
T2 sequence (P21917 whole entry): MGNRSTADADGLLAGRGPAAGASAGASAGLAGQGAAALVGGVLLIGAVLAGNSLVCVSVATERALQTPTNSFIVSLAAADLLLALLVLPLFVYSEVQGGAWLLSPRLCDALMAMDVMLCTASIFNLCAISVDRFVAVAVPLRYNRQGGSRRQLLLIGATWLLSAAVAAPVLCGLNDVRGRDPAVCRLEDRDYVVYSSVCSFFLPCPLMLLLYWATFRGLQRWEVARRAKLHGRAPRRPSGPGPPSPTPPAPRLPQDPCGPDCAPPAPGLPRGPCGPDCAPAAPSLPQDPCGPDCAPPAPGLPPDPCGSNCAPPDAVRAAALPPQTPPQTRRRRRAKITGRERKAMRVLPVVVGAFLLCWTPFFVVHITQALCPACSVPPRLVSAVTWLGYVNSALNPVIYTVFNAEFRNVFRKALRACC
T1 sequence (P14416 whole entry): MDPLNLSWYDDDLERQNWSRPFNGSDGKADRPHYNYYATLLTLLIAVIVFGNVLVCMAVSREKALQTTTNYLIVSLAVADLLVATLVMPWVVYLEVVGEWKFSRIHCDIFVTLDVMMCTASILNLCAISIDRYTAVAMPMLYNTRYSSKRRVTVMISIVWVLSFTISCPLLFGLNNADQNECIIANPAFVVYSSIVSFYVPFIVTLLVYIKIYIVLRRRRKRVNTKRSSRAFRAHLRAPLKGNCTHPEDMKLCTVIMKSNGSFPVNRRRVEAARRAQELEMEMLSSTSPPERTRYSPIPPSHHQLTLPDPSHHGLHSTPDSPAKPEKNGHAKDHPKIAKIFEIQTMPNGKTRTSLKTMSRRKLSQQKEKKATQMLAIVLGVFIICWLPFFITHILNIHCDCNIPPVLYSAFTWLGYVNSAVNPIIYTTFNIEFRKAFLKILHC
Chain of human dopamine D2-long (D2) receptor (P14416 whole entry): as above
Chain of serotonin 5HT1A receptor (P08908 whole entry): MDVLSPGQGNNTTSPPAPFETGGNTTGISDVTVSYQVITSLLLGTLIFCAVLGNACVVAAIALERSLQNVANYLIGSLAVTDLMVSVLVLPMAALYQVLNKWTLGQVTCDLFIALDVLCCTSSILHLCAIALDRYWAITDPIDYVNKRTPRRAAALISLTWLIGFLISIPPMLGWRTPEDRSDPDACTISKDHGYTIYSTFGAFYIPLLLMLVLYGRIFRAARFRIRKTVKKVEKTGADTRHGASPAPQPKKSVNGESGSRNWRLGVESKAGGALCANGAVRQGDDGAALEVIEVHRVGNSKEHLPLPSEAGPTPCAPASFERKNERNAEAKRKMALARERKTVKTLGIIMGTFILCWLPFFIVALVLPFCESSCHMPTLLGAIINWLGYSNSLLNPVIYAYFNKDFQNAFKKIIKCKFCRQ
Chain of serotonin 5HT2c receptor (P28335 33-458): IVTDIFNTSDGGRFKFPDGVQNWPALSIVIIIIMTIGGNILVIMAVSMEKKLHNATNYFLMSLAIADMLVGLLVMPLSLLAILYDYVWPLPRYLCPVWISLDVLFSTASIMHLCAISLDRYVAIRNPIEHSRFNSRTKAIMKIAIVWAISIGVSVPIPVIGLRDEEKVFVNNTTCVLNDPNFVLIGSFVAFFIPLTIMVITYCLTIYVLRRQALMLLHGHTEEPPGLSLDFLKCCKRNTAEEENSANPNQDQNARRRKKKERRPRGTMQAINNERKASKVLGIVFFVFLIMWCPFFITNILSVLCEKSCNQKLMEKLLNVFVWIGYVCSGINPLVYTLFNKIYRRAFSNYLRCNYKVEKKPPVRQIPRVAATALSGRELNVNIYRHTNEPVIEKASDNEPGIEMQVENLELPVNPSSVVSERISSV
Chain of D1a dopamine receptors (P21728 whole entry): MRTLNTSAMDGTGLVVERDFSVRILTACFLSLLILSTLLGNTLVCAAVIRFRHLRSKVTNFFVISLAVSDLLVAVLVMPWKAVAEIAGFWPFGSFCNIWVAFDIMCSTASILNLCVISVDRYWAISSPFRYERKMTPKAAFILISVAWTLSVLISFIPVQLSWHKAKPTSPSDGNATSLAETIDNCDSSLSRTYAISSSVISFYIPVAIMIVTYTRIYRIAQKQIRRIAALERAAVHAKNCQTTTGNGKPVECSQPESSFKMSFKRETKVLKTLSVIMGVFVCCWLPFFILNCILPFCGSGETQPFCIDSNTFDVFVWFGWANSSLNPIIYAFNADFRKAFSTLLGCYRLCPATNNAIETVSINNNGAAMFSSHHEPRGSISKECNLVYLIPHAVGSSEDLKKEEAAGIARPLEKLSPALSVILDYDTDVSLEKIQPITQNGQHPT

O=C(NC/C=C/CN1CCN(c2cccc(Cl)c2Cl)CC1)c1ccc(-c2cccc(=O)[nH]2)cc1 [Compound 9, N-(4-(4-(2,3-Dichloro-phenyl)-piperazin-1-yl)-trans-but-2-enyl)-4-(6-oxo-1,6-dihydro-pyridin-2-yl)-benzamide]
Ki [1]: 0.0236 µM | Ki [2, 9]: 0.0006 µM | Ki [2, 10]: 0.0006 ± 0.0001 µM | IC50 [3]: 0.041 ± 0.008 µM

COc1ccccc1N1CCN(C/C=C/CNC(=O)c2ccc3c(c2)Cc2ccccc2-3)CC1 [Compound 15, N-(4-(4-(2-methoxyphenyl)piperazin-1-yl)-trans-but-2-enyl)-9H-fluorene-2-carboxamide]
Ki [1]: 0.0484 µM | IC50 [3]: 0.179 ± 0.048 µM

O=C(NC/C=C/CN1CCN(c2cccc(Cl)c2Cl)CC1)c1ccc(-c2cccc[n+]2[O-])cc1 [Compound 12, N-(4-(4-(2,3-Dichloro-phenyl)-piperazin-1-yl)-trans-but-2-enyl)-4-(pyridin-N-oxide-2-yl)-benzamide]
Ki [1]: 0.0258 µM | Ki [2, 9]: 0.0011 µM | Ki [2, 10]: 0.0011 ± 0.0003 µM | IC50 [3]: 0.0229 ± 0.002 µM | partial agonist activity: % stimulation, D2 [4]: 31% | EC50 [4]: 0.231 µM

O=C(NCCC(O)CN1CCN(c2cccc(Cl)c2Cl)CC1)c1ccc(-c2ccccn2)cc1 (stereo not shown) [Compound 16, N-(4-(4-(2,3-Dichlorophenyl)piperazin-1-yl)-3-hydroxybutyl)-4-pyridin-2-yl-benzamide]
Ki [1]: 0.267 µM | Ki [2, 9]: 0.003 µM | Ki [2, 10]: 0.003 ± 0.0002 µM | D2/D3 [2]: 89 | Ki [5]: 4.62 µM | D4/D3 Ki ratio [5]: 1540 | partial agonist activity: % stimulation, D2 [4]: 26% | EC50 [4]: 0.0158 ± 0.0027 µM | partial agonist activity: % stimulation, D3 [6]: 48% | EC50 [6]: 0.001 ± 0.0001 µM | 5HT1A/D3 (serotonin 5HT1A receptor): 11 | 5HT2A/D3 (serotonin 5HT2A receptor): 14 | 5HT2c/D (serotonin 5HT2c receptor): 38

O=C(NCCC(O)CN1CCN(c2cccc(Cl)c2Cl)CC1)c1ccc2c(c1)Cc1ccccc1-2 (stereo not shown) [Compound 17]
Ki [1]: 0.319 µM | Ki [2, 9]: 0.0018 µM | Ki [2, 10]: 0.0018 µM | D2/D3 [2]: 177 | Ki [5]: 16.4 µM | D4/D3 Ki ratio [5]: 9110 | partial agonist activity: % stimulation, D3 [6]: 26% | EC50 [6]: 0.042 ± 0.0013 µM | 5HT1A/D3 (serotonin 5HT1A receptor): 1006 | 5HT2A/D3 (serotonin 5HT2A receptor): 303 | 5HT2c/D (serotonin 5HT2c receptor): 1572

Cc1cccnc1-c1ccc(C(=O)NC/C=C/CN2CCN(c3cccc(Cl)c3Cl)CC2)cc1 [Compound 11, N-(4-(4-(2,3-Dichlorophenyl)piperazin-1-yl)-trans-but-2-enyl)-4-(3-methyl-pyridin-2-yl)-benzamide]
Ki [1]: 0.092 µM | Ki [2, 9]: 0.0016 µM | Ki [2, 10]: 0.0016 ± 0.0004 µM | D2/D3 [2]: 58 | IC50 [3]: 0.368 ± 0.113 µM | IC50 [7]: 0.0256 ± 0.0085 µM | 5HT1A/D3 (serotonin 5HT1A receptor): 58 | 5HT2A/D3 (serotonin 5HT2A receptor): 29 | 5HT2c/D (serotonin 5HT2c receptor): 19

COc1cc([125I])cc(C(=O)NC2CC3CCCC(C2)N3Cc2ccccc2)c1OC (stereo not shown) [^125I-IABN]
fold lower affinity to human D4.4 dopamine receptors [8]: 7- to 10 fold | affinity to σ1 binding sites (σ1 binding sites): low affinity | affinity to σ2 binding sites (σ2 binding sites): low affinity | affinity to D1a dopamine receptors (D1a dopamine receptors): low affinity

O=C(NCC(O)CCN1CCN(c2cccc(Cl)c2Cl)CC1)c1ccc(-c2ccccn2)cc1 (stereo not shown) [Compound 21, N-(4-(4-(2,3-Dichlorophenyl)piperazin-1-yl)-2-hydroxybutyl)-4-(pyridin-2-yl)-benzamide]
Ki [1]: 0.0284 µM | Ki [2, 9]: 0.0005 µM | Ki [2, 10]: 0.0005 ± 0.0001 µM | D2/D3 [2]: 57 | IC50 [3]: 0.0883 ± 0.0157 µM | IC50 [7]: 0.0054 ± 0.0018 µM | partial agonist activity: % stimulation, D3 [6]: 20% | EC50 [6]: 0.0034 µM | 5HT1A/D3 (serotonin 5HT1A receptor): 30 | 5HT2A/D3 (serotonin 5HT2A receptor): 31 | 5HT2c/D (serotonin 5HT2c receptor): 50

COc1ccccc1N1CCN(CC(O)CCNC(=O)c2ccc(-c3ccccn3)cc2)CC1 (stereo not shown) [Compound 18, N-(3-Hydroxy-4-(4-(2-methoxy-phenyl)-piperazin-1-yl)-butyl)-4-pyridin-2-yl-benzamide]
Ki [1]: 0.284 µM | Ki [2, 9]: 0.0028 µM | Ki [2, 10]: 0.0028 ± 0.0008 µM | D2/D3 [2]: 101 | Ki [5]: 1.49 µM | D4/D3 Ki ratio [5]: 532 | IC50 [7]: 0.0128 ± 0.0013 µM | 5HT1A/D3 (serotonin 5HT1A receptor): 13 | 5HT2A/D3 (serotonin 5HT2A receptor): 248 | 5HT2c/D (serotonin 5HT2c receptor): 1407

COc1ccccc1N1CCN(C/C=C/CNC(=O)c2ccc(-c3ccccn3)cc2)CC1 [Compound 14, N-(4-(4-(2-Methoxy-phenyl)-piperazin-1-yl)-trans-but-2-enyl)-4-pyridin-2-yl-benzamide]
Ki [2, 9]: 0.0029 µM | Ki [2, 10]: 0.0029 ± 0.0011 µM | IC50 [7]: 0.0426 ± 0.0079 µM

CC(=O)OC(CCNC(=O)c1ccc(-c2ccccn2)cc1)CN1CCN(c2cccc(Cl)c2Cl)CC1 (stereo not shown) [Compound 20, 1-(4-(2,3-Dichlorophenyl)piperazin-1-yl)-4-(4-(pyridin-2-yl)-benzamido)-butan-2-yl acetate]
Ki [1]: 0.134 µM | Ki [2, 9]: 0.0117 µM | Ki [2, 10]: 0.0117 ± 0.001 µM | D2/D3 [2]: 11 | partial agonist activity: % stimulation, D3 [6]: 47% | EC50 [6]: 0.0039 ± 0.0014 µM | 5HT1A/D3 (serotonin 5HT1A receptor): 10 | 5HT2A/D3 (serotonin 5HT2A receptor): 7 | 5HT2c/D (serotonin 5HT2c receptor): 7

Cc1cccc(-c2ccc(C(=O)NC/C=C/CN3CCN(c4cccc(Cl)c4Cl)CC3)cc2)n1 [Compound 10, N-(4-(4-(2,3-Dichloro-phenyl)-piperazin-1-yl)-trans-but-2-enyl)-4-(6-methyl-pyridin-2-yl)-benzamide]
Ki [1]: 0.105 µM | Ki [2, 9]: 0.0014 µM | Ki [2, 10]: 0.0014 ± 0.0003 µM | D2/D3 [2]: 75 | IC50 [3]: 1.3 ± 0.32 µM | IC50 [7]: 0.0067 ± 0.0026 µM | 5HT1A/D3 (serotonin 5HT1A receptor): 221 | 5HT2A/D3 (serotonin 5HT2A receptor): 66 | 5HT2c/D (serotonin 5HT2c receptor): 69
